Values of other authors as cited in patent US20050085446A1, “Fluoroquinolone formulations and methods of making and using the same” (priority 2003, published 2005).
Read-outs that look alike come from different tables or passages of the source.

System: bacterial strains

Molecule | MIC90 (generally around) | MIC90 [μg/gm]
O=C(O)c1cn(C2CC2)c2cc(N3CCNCC3)c(F)cc2c1=O [ciprofloxacin, 1-cyclopropyl-6-fluoro-1,4-dihydro-4-oxo-7-(1-piperazinyl)-3-quinolinecarboxylic acid] | around 0.5 μg/g | 
gentamicin |  | 10
